From US9512114B2, “Substituted aminopyrimidine compounds and methods of use” (Calitor Sciences, LLC, priority 2013, dated 2016)

Experiments:
[1] = Compound stability in human liver microsomes; type: in vitro ADME; settings: pH 7.4; for CLint scaled at 5 μM: liver microsomes, in vivo CLint extrapolated from human liver microsome incubation; for half-life at 5 μM: human liver microsomes 0.5 mg protein/mL, compound 5 μM, NADPH 1.0 mM, 37° C., read-out: Human T1/2
Method: (§1) The LC/MS/MS system used in the analysis consists of an Agilent 1200 Series vacuum degasser, binary pump, well-plate autosampler, thermostatted column compartment, the Agilent G6430 Triple Quadrupole Mass Spectrometer with an electrosprayionization (ESI) source. Quantitative analysis was carried out using MRM mode. The parameters for MRM transitions are in the Table A.
(§2) An Agilent XDB-C18, 2.1×30 mm, […] column was used for the analysis. 5 μL of the samples were injected. Analysis condition: The mobile phase was 0.1% formic acid in water (A) and 0.1% formic acid in methanol (B). The flow rate was 0.4 mL/min. And the gradient of Mobile phase was in the Table B.
(§3) Alternatively, an Agilent 6330 series LC/MS/MS spectrometer equipped with G1312A binary pumps, a G1367A autosampler and a G1314C UV detector were used in the analysis. An ESI source was used on the LC/MS/MS spectrometer. The analysis was done in positive ion mode as appropriate and the MRM transition for each analyte was optimized using standard solution. A Capcell MP-C18 100×4.6 mm I.D., […] column (Phenomenex, Torrance, Calif., USA) was used during the analysis. The mobile phase was 5 mM ammonia acetate, 0.1% MeOH in water (A): 5 mM ammonia acetate, 0.1% MeOH in acetonitrile (B) (70:30, v/v). The flow rate was 0.6 mL/min. Column was maintained at ambient temperature. 20 μL of the samples were injected.
(§4) Human or rat liver microsomes incubations were conducted in duplicate in polypropylene tubes. The typical incubation mixtures consisted of human or rat liver microsomes (0.5 mg protein/mL), compounds of interest (5 μM) and NADPH (1.0 mM) in a total volume of 200 μL potassium phosphate buffer (PBS, 100 mM, pH 7.4). Compounds were dissolved in DMSO and diluted with PBS such that the final concentration of DMSO was 0.05%. The enzymatic reactions were commenced with the addition of protein after a 3-min preincubation and incubated in a water bath open to the air at 37° C. Reactions were terminated at various time points (0, 5, 10, 15, 30, 60 min) by adding equal volume of ice-cold acetonitrile. The samples were stored at −80° C. until LC/MS/MS assays.
(§5) The concentrations of compounds in the incubation mixtures of human or rat liver microsomes were determined by a LC/MS/MS method. The ranges of the linearity in the concentration range were determined for each tested compounds.
(§6) A parallel incubation was performed using denatured microsomes as the negative control, and reactions were terminated at various time points (0, 15, 60 min) after incubation at 37° C.
(§7) Dextromethorphan (70 μM) was selected as the positive control, and reactions were terminated at various time points (0, 5, 10, 15, 30, 60 min) after incubation at 37° C. Both positive and negative control samples were included in each assay to ensure the integrity of the microsomal incubation system.
(§8) The concentrations of compounds in human or rat liver microsome incubations were plotted as a percentage of the relevant zero time point control for each reaction. The in vivo CLint were extrapolated (ref.: Naritomi, Y.; Terashita, S.; Kimura, S.; Suzuki, A.; Kagayama, A.; and Sugiyama, Y.; Prediction of human hepatic clearance from in vivo animal experiments and in vitro metabolic studies with liver microsomes from animals and humans. Drug Metab. Dispos., 2001, 29: 1316-1324).

[2] = Pharmacokinetic profiles in rats; type: in vivo, rat; settings: for Cl/F / AUC(0-t) / half-life / Vd: iv dosing 1 mg/kg; for F: oral vs iv (iv 1 mg/kg; p.o. generally 5 or 10 mg/kg); for AUC(0-t) / half-life / Vd: rat, plasma; for Vd: read-out: Vss
Method: The compounds disclosed herein are assessed in pharmacokinetic studies in mice, rats, dogs or monkeys. The compounds are administered as a water solution, 2% HPMC+1% TWEEN®80 in water solution, 5% DMSO+5% solutol in saline, 4% MC suspension or capsule. For the intravenous administration, the animals are generally given at 1 or 2 mg/kg dose. For the oral (p.o.) dosing, mice and rats are generally given 5 or 10 mg/kg dose, and dogs and monkeys are generally given 10 mg/kg dose. The blood samples (0.3 mL) are drawn at 0.25, 0.5, 1.0, 2.0, 3.0, 4.0, 6.0, 8.0, 12 and 24 h time points or 0.083, 0.25, 0.5, 1.0, 2.0, 4.0, 6.0, 8.0 and 24 h time points and centrifuged at 3,000 or 4000 rpm for 2 to 10 min. The plasma solutions are collected, stored at −20° C. or −70° C. until analyzed by LC/MS/MS as described above.

[3] = Compound stability in rat liver microsomes; type: in vitro ADME; settings: pH 7.4; for CLint scaled at 5 μM: liver microsomes, in vivo CLint extrapolated from rat liver microsome incubation; for half-life at 5 μM: rat liver microsomes 0.5 mg protein/mL, compound 5 μM, NADPH 1.0 mM, 37° C., read-out: Rat T1/2
Method: as §1, §2, §3, §4, §5, §6, §7, §8

SMILES | CLint scaled at 5 μM [1] [mL/min/kg] | half-life at 5 μM [1] [min] | Cl/F [2] [mL/min/kg] | F [2] [%] | AUC(0-t) [2] [ng·h/mL] | half-life [2] [min] | Vd [2] [L/kg] | CLint scaled at 5 μM [3] [mL/min/kg] | half-life at 5 μM [3] [min]
CC[C@H](Nc1ncnc(N)c1-c1nnc(C)o1)c1cc2cccc(Cl)c2c(=O)n1C1CC1 [Ex. 10, S)-3-(1-((6-amino-5-(5-methyl-1,3,4-oxadiazol-2-yl)pyrimidin-4-yl)aminopropyl)-8-chloro-2-cyclopropylisoquinolin-1(2H)-one] | 86.9 | 20 | 50 | 81.33 | 333 | 86.4 | 5.35 | 169 | 14.7
CC[C@H](Nc1ncnc(N)c1-c1nnn(C)n1)c1cc2cccc(Cl)c2c(=O)n1C1CC1 [Ex. 13, (S)-3-(1-((6-amino-5-(2-methyl-2H-tetrazol-5-yl)pyrimidin-4-yl)amino)propyl)-8-chloro-2-cyclopropylisoquinolin-1(2H)-one] | 157 | 11.1 | 36.2 | 67.9 | 465 | 99.6 | 4.42 | 137 | 18.2
Cc1noc(-c2c(N)ncnc2N[C@@H](C)c2cc3cccc(Cl)c3c(=O)n2-c2cccc(F)c2)n1 [Ex. 23, (S)-3-(1-((6-amino-5-(3-methyl-1,2,4-oxadiazol-5-yl)pyrimidin-4-yl)amino)ethyl)-8-chloro-2-(3-fluorophenyl)isoquinolin-1(2H)-one] | 479 | 3.63 |  |  |  |  |  | 456 | 5.45
CC[C@H](Nc1ncnc(N)c1-c1nc(C)no1)c1cc2cccc(Cl)c2c(=O)n1-c1ccccc1 [Ex. 3, (S)-3-(1-((6-amino-5-(3-methyl-1,2,4-oxadiazol-5-yl)pyrimidin-4-yl)amino)propyl)-8-chloro-2-phenylisoquinolin-1(2H)-one] | 134 | 12.9 | 128 | 12.71 | 131 | 44.4 | 4.96 | 148 | 16.7
CC[C@H](Nc1ncnc(N)c1-c1noc(C)n1)c1cc2cccc(Cl)c2c(=O)n1C1CC1 [Ex. 21, (S)-3-(1-((6-amino-5-(5-methyl-1,2,4-oxadiazol-3-yl)pyrimidin-4-yl)amino)propyl)-8-chloro-2-cyclopropylisoquinolin-1(2H)-one] | 258 | 6.73 |  |  |  |  |  | 130 | 19.2
CC[C@H](Nc1ncnc(N)c1-c1nnc(C)o1)c1cc2cccc(C)c2c(=O)n1C1CC1 [Ex. 6, (S)-3-(1-((6-amino-5-(5-methyl-1,3,4-oxadiazol-2-yl)pyrimidin-4-yl)amino)propyl)-2-cyclopropyl-8-methylisoquinolin-1(2H)-one] | 93.1 | 18.7 | 62.3 | 48.66 | 266 | 51.6 | 4.08 | 324 | 7.66
Cc1nc(-c2c(N)ncnc2N[C@@H](C)c2cc3cccc(-c4cnn(C)c4)c3c(=O)n2C2CC2)no1 [Ex. 34, (S)-3-(1-((6-amino-5-(5-methyl-1,2,4-oxadiazol-3-yl)pyrimidin-4-yl)amino)ethyl)-2-cyclopropyl-8-(1-methyl-1H-pyrazol-4-yl)isoquinolin-1 (2H)-one] | 42.4 | 41 | 23.7 | 96.4 | 678 | 92.4 | 2.74 | 29.9 | 82.9
C[C@H](Nc1ncnc(N)c1-c1nnn(C)n1)c1cc2cccc(Cl)c2c(=O)n1-c1ccccc1 [Ex. 15, (S)-3-(1-((6-amino-5-(2-methyl-2H-tetrazol-5-yl)pyrimidin-4-yl)amino)ethyl)-8-chloro-2-phenylisoquinolin-1(2H)-one] | 287 | 6.06 | 22.7 | 48.92 | 758 | 51.6 | 0.92 | 99.9 | 24.9
CC[C@H](Nc1ncnc(N)c1-c1nc(C)no1)c1cc2cccc(-c3cnn(C)c3)c2c(=O)n1C1CC1 [Ex. 32, (S)-3-(1-((6-amino-5-(3-methyl-1,2,4-oxadiazol-5-yl)pyrimidin-4-yl)amino)propyl)-2-cyclopropyl-8-(1-methyl-1H-pyrazol-4-yl)isoquinolin-1(2H)-one] | 23.4 | 74.3 | 24.3 | 74.2 | 688 | 89.4 | 2.42 | 21.2 | 117
CC[C@H](Nc1ncnc(N)c1-c1ncn(C)n1)c1cc2cccc(Cl)c2c(=O)n1C1CC1 [Ex. 20, (S)-3-(1-((6-amino-5-(1-methyl-1H-1,2,4-triazol-3-yl)pyrimidin-4-yl)amino)propyl)-8-chloro-2-cyclopropylisoquinolin-1(2H)-one] | 251 | 6.93 | 48.7 | 64.61 | 341 | 48.6 | 2.65 | 100 | 24.9
CCCCOC(=O)c1nc(-c2c(N)ncnc2N[C@@H](CC)c2cc3cccc(Cl)c3c(=O)n2C2CC2)nn1C [Ex. 14, (S)-butyl 3-(4-amino-6-((1-(8-chloro-2-cyclopropyl-1-oxo-1,2-dihydro-isoquinolin-3-yl)propyl)amino)pyrimidin-5-yl)-1-methyl-1H-1,2,4-triazole-5-carboxylate] | 225 | 7.73 |  |  |  |  |  | 125 | 19.9
C[C@H](Nc1ncnc(N)c1-c1nnn(C)n1)c1cc2cccc(-c3cnn(C)c3)c2c(=O)n1C1CC1 [Ex. 33, (S)-3-(1-((6-amino-5-(2-methyl-2H-tetrazol-5-yl)pyrimidin-4-yl)amino)ethyl)-2-cyclopropyl-8-(1-methyl-1-pyrazol-4-yl)isoquinolin-1 (2H)-one] | 28.4 | 61.3 | 12.7 | 163.6 | 1300 | 97.2 | 1.9 | 26.7 | 92.9
